Here are results for 44 substances from patent publication US11840686B2, “Modulation of prekallikrein (PKK) expression” (Ionis Pharmaceuticals, Inc., priority 2013, dated 2023).

Strand notation (5' to 3'): a small letter for the sugar, then the base; units joined by * are phosphorothioate-linked, units joined directly phosphodiester-linked; [ ] holds rarer units or linkages, { } end groups; capitals alone tell only the bases. e = 2'-O-(2-methoxyethyl) (MOE); k = constrained ethyl (cEt); [5mC] = 5-methylcytosine; d = 2'-deoxy (DNA)

For the data set, the system named is human PKK mRNA. Description: Antisense inhibition of human PKK mRNA in HepaRG cells, 1,000 nM, MOE/deoxy/cEt oligonucleotides (Example 3). The data set is classed as cell-based. In a few lines:
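Readout is percent PKK mRNA reduction against untreated controls, by real-time PCR (RTS3454) adjusted for total RNA via RIBOGREEN. Oligonucleotides, phosphorothioate gapmers of 16 nucleosides with cEt, MOE and deoxy sugars, were delivered at 1,000 nM by electroporation to 20,000 HepaRG cells/well for roughly 24 h.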

Setting [1] is: HepaRG cells, 1,000 nM antisense oligonucleotide, Table 29.
Setting [2] is: Table 20, HepaRG cells, electroporation with 1,000 nM antisense oligonucleotide, approximately 24 hours, PKK mRNA by RT-PCR (RTS3454), relative to untreated control cells.
Setting [3] is: Table 22 experiment, HepaRG cells, electroporation with 1,000 nM antisense oligonucleotide, approx. 24 hours, PKK mRNA by RT-PCR (RTS3454), relative to untreated control cells.
[4] abbreviates: Table 21 experiment, HepaRG cells, electroporation with 1,000 nM antisense oligonucleotide, approx. 24 hours, PKK mRNA by RT-PCR (RTS3454), relative to untreated control cells.
Setting [5] is: PKK mRNA, HepaRG cells, 1,000 nM antisense oligonucleotide, Table 31.
Where [6] appears, read: Table 27, HepaRG cells, 1,000 nM antisense oligonucleotide, human PKK mRNA.
[7] abbreviates: Table 19, HepaRG cells, electroporation with 1,000 nM antisense oligonucleotide, approximately 24 hours, PKK mRNA by RT-PCR (RTS3454), relative to untreated control cells.
The mark [8] stands for this setting: Table 30, human PKK mRNA, HepaRG cells, 1,000 nM antisense oligonucleotide.
Where [9] appears, read: HepaRG cells, electroporation with 1,000 nM antisense oligonucleotide, approximately 24 hours, primer probe set RTS3454, relative to untreated control cells, experiment of Table 23.
Setting [10] is: HepaRG cells, electroporation with 1,000 nM antisense oligonucleotide, approx. 24 hours, PKK mRNA by RT-PCR (RTS3454), relative to untreated control cells, Table 26 experiment.
Where [11] appears, read: Table 28, HepaRG cells, 1,000 nM antisense oligonucleotide, human PKK mRNA.
Where [12] appears, read: HepaRG cells, electroporation with 1,000 nM antisense oligonucleotide, approx. 24 hours, PKK mRNA by RT-PCR (RTS3454), relative to untreated control cells, Table 25 experiment.

As to “548559 (antisense eG*eA*kG*dA*d[5mC]*dT*dG*dA*dA*dG*d[5mC]*d[5mC]*d[5mC]*kT*k[5mC]*eA) [compound 548559]”, the % inhibition (commonly the percentage by which the read-out fell short of the control) under setting [1] was 44%.

Consider “547847 (antisense e[5mC]*eT*k[5mC]*dG*dA*dT*dG*dG*d[5mC]*dA*dA*dG*d[5mC]*kA*k[5mC]*eT) [compound 547847]”, for which the “% inhibition” value under setting [2] worked out at 46% and the “% inhibition” value under setting [3] turned out to be 72%.

For the substance “547836 (eT*e[5mC]*k[5mC]*dA*dG*dA*dA*dA*d[5mC]*dT*dG*d[5mC]*dA*k[5mC]*k[5mC]*eT; antisense) [compound 547836]”, under setting [4], the “% inhibition” value stood at 50%.

As for “548585 (eT*eA*kG*dG*d[5mC]*dA*d[5mC]*dA*dG*dA*d[5mC]*dA*dA*k[5mC]*k[5mC]*eT; antisense) [compound 548585]”, under setting [1], the “% inhibition” value stood at 33%.

Turning to “548615 (antisense eT*eT*kG*dG*dT*dG*dG*d[5mC]*dG*dG*dG*dA*dT*k[5mC]*kG*eG) [compound 548615]”, the “% inhibition” value under setting [5] turned out to be 10%.

As to “548328 (antisense eG*eG*kT*d[5mC]*d[5mC]*dT*dT*dG*dA*dA*d[5mC]*d[5mC]*d[5mC]*k[5mC]*kG*eT) [compound 548328]”, the “% inhibition” value under setting [6] was 68%.

Consider “548086 (antisense e[5mC]*eT*kA*dA*dG*dG*dG*dA*d[5mC]*d[5mC]*dA*d[5mC]*d[5mC]*kT*kG*eA) [compound 548086]”, for which the “% inhibition” value under setting [7] is 36%.

As for “547757 (antisense eG*eA*kG*dT*d[5mC]*dT*d[5mC]*dT*dT*dG*dT*d[5mC]*dA*k[5mC]*kT*eT) [compound 547757]”, the “% inhibition” value under setting [4] is reported as 69%.

With “548386 (eA*eG*k[5mC]*d[5mC]*d[5mC]*dT*dG*dT*dT*dT*dG*dG*dT*kT*kT*eT; antisense) [compound 548386]”, the “% inhibition” value under setting [8] is 0%.

In the case of “548684 (antisense e[5mC]*eA*kA*dG*dA*d[5mC]*d[5mC]*dT*dT*dG*d[5mC]*dT*dT*kG*k[5mC]*e[5mC]) [compound 548684]”, under setting [5], the “% inhibition” value is recorded as 24%.

Turning to “548596 (eA*eT*kG*dG*d[5mC]*dG*dG*dT*dG*dA*dA*dG*d[5mC]*kA*kG*e[5mC]; antisense) [compound 548596]”, the “% inhibition” value under setting [1] worked out at 20%.

For “547977 (antisense e[5mC]*e[5mC]*kT*d[5mC]*d[5mC]*dA*dA*dA*dG*dT*d[5mC]*dA*dA*k[5mC]*kT*e[5mC]) [compound 547977]”, the “% inhibition” value under setting [9] stood at 57%.

Take “548137 (eA*eG*kG*d[5mC]*dT*d[5mC]*dA*dG*dA*dA*dT*dT*dT*kG*kA*e[5mC]; antisense) [compound 548137]”: under setting [7], the “% inhibition” value turned out to be 62%.

Turning to “548604 (eG*eT*kG*dG*dT*dG*dG*dG*dA*dT*dT*dG*dG*kT*kG*e[5mC]; antisense) [compound 548604]”, the “% inhibition” value under setting [1] came out at 22%.

For the substance “547867 (antisense e[5mC]*e[5mC]*kT*dT*dA*dG*dA*d[5mC]*dA*d[5mC]*dA*dT*dT*kA*kA*eA) [compound 547867]”, the “% inhibition” value is, setting by setting: under setting [2], 34%; under setting [3], 53%.

As to “548617 (antisense eG*eA*kT*dT*dG*dG*dT*dG*dG*d[5mC]*dG*dG*dG*kA*kT*e[5mC]) [compound 548617]”, the “% inhibition” value under setting [5] was found to be 44%.

Take “548613 (antisense eT*eG*kG*d[5mC]*dG*dG*dG*dA*dT*d[5mC]*dG*dG*dT*kG*kG*eT) [compound 548613]”: the “% inhibition” value under setting [5] is 39%.

Take “548122 (antisense e[5mC]*eT*k[5mC]*dT*dG*dG*dA*d[5mC]*dT*dG*d[5mC]*dT*dT*k[5mC]*kT*e[5mC]) [compound 548122]”: the “% inhibition” value under setting [7] came to 55%.

For the substance “548144 (eA*eT*kG*d[5mC]*d[5mC]*dA*d[5mC]*dT*d[5mC]*dT*d[5mC]*d[5mC]*dA*kT*kG*e[5mC]; antisense) [compound 548144]”, the “% inhibition” value under setting [7] amounted to 52%.

With “548269 (antisense eA*eG*k[5mC]*dA*d[5mC]*dA*d[5mC]*dA*dA*dT*dT*dA*d[5mC]*kT*kG*eG) [compound 548269]”, under setting [10], the “% inhibition” value came to 62%.

For “548454 (eA*e[5mC]*kT*dG*dT*dA*d[5mC]*d[5mC]*dT*dA*dT*dA*dA*k[5mC]*kA*eG; antisense) [compound 548454]”, the “% inhibition” value under setting [8] came to 17%.

For “548096 (antisense eG*eT*kG*dT*dT*dT*dG*d[5mC]*dA*dA*dA*d[5mC]*dT*kA*kA*eG) [compound 548096]”, the “% inhibition” value under setting [7] is 23%.

Consider “548496 (antisense eA*e[5mC]*kT*dG*dA*dA*d[5mC]*d[5mC]*d[5mC]*d[5mC]*d[5mC]*dT*dT*kA*kG*eG) [compound 548496]”, for which the “% inhibition” value under setting [11] is reported as 0%.

Take “548528 (antisense eT*eG*k[5mC]*dA*dG*dT*dG*dG*dT*d[5mC]*dA*dA*dG*k[5mC]*kA*eT) [compound 548528]”: the “% inhibition” value under setting [11] is listed as 32%.

Take “548229 (e[5mC]*eA*kT*dT*dG*dT*dT*dG*dT*dG*dT*dG*dG*k[5mC]*k[5mC]*e[5mC]; antisense) [compound 548229]”: the “% inhibition” value under setting [10] is recorded as 31%.

With “547869 (antisense eA*eA*k[5mC]*d[5mC]*dT*dT*dA*dG*dA*d[5mC]*dA*d[5mC]*dA*kT*kT*eA) [compound 547869]”, the “% inhibition” value was found to be 45% under setting [2] and 77% under setting [3].

In the case of “548665 (antisense eG*e[5mC]*kT*d[5mC]*d[5mC]*d[5mC]*dG*dG*d[5mC]*d[5mC]*dA*dT*dT*kA*kG*e[5mC]) [compound 548665]”, the “% inhibition” value under setting [5] is on record as 8%.

For the substance “547795 (antisense eA*e[5mC]*k[5mC]*dT*d[5mC]*dT*dG*dA*dA*dG*dA*dA*dG*kG*k[5mC]*eG) [compound 547795]”, the “% inhibition” value under setting [4] is recorded as 66%.

Regarding “548432 (antisense eA*e[5mC]*kT*dG*dT*dA*d[5mC]*d[5mC]*dT*dA*dT*dA*dA*k[5mC]*kT*e[5mC]) [compound 548432]”, the “% inhibition” value under setting [8] is 43%.

For “548582 (eT*eA*kG*d[5mC]*dT*d[5mC]*d[5mC]*dA*dT*dG*d[5mC]*dT*dG*kT*kG*eT; antisense) [compound 548582]”, the “% inhibition” value under setting [1] is 59%.

As for “547846 (antisense eT*e[5mC]*kG*dA*dT*dG*dG*d[5mC]*dA*dA*dG*d[5mC]*dA*k[5mC]*kT*eT) [compound 547846]”, the “% inhibition” value reads like this: under setting [2], 0%; under setting [3], 42%.

As to “547970 (antisense e[5mC]*eT*k[5mC]*d[5mC]*d[5mC]*dG*dG*dG*dT*dA*dA*dA*dT*kT*kT*eT) [compound 547970]”, the “% inhibition” value under setting [9] is reported as 42%.

As for “548480 (eG*e[5mC]*k[5mC]*dA*d[5mC]*dG*d[5mC]*d[5mC]*d[5mC]*dT*dT*dA*dG*k[5mC]*kA*eG; antisense) [compound 548480]”, the “% inhibition” value under setting [11] is given as 20%.

Take “548325 (e[5mC]*e[5mC]*k[5mC]*dA*d[5mC]*dT*dG*dA*d[5mC]*dT*dG*dA*d[5mC]*kT*kA*e[5mC]; antisense) [compound 548325]”: the “% inhibition” value under setting [6] is 27%.

For the substance “548565 (antisense eG*eG*k[5mC]*dA*dT*dT*dA*dG*dG*dA*dT*dA*dG*kG*k[5mC]*eA) [compound 548565]”, under setting [1], the “% inhibition” value came out at 63%.

For the substance “548471 (eG*e[5mC]*kG*dG*dA*dA*dA*dA*d[5mC]*dT*dG*dG*d[5mC]*k[5mC]*kG*eT; antisense) [compound 548471]”, the “% inhibition” value under setting [11] is listed as 17%.

On to “548194 (eG*e[5mC]*k[5mC]*dA*dA*d[5mC]*dA*dG*dT*dT*dT*d[5mC]*dA*kA*k[5mC]*eT; antisense) [compound 548194]”, for which the “% inhibition” value under setting [12] is 61%.

In the case of “548652 (antisense e[5mC]*e[5mC]*kA*d[5mC]*dG*dA*dT*dG*d[5mC]*dT*d[5mC]*dT*dG*kG*k[5mC]*e[5mC]) [compound 548652]”, the “% inhibition” value under setting [5] is recorded as 65%.

“548286 (antisense eG*eG*kG*dA*d[5mC]*dT*dA*d[5mC]*dA*dT*dG*d[5mC]*dA*kA*kT*eA) [compound 548286]”: the “% inhibition” value under setting [10] amounted to 47%.

For the substance “547823 (eA*eG*k[5mC]*dA*dA*d[5mC]*d[5mC]*dA*dA*dA*d[5mC]*d[5mC]*dT*kT*kT*eT; antisense) [compound 547823]”, the “% inhibition” value under setting [4] was 51%.

Regarding “547855 (antisense eT*eA*kT*d[5mC]*dA*dA*d[5mC]*dT*d[5mC]*d[5mC]*dT*dT*dT*kA*kT*eA) [compound 547855]”, the “% inhibition” value under setting [2] is 59% and the “% inhibition” value under setting [3] is 38%.

For the substance “548272 (antisense eG*eG*kT*dG*d[5mC]*d[5mC]*dA*d[5mC]*dT*dT*dG*d[5mC]*dT*kT*kG*eG) [compound 548272]”, under setting [10], the “% inhibition” value is reported as 54%.

In the case of “548461 (e[5mC]*e[5mC]*kT*dA*dT*dA*dT*d[5mC]*dA*d[5mC]*dT*dG*dT*kA*kA*e[5mC]; antisense) [compound 548461]”, under setting [11], the “% inhibition” value amounted to 0%.

For the substance “548193 (eT*eG*kT*d[5mC]*d[5mC]*dT*dG*dT*d[5mC]*dA*dA*d[5mC]*dA*kT*kA*eT; antisense) [compound 548193]”, the “% inhibition” value under setting [12] turned out to be 58%.
